# Experimental data published in patent US12012414B1, “Imidazo[1,5-a]pyrido[4,3-e]pyrimidines as CK2 inhibitors” (KING FAISAL UNIVERSITY, priority 2024, dated 2024).
# Experiments:
# MCF7 (breast) = test: In vitro cytotoxic activity (MTT) assay, MCF7; format: cell-based; details: Homo sapiens; MCF7 cells, exposed for 96 hours, 50% inhibition of cell proliferation; read-out: Cytotoxicity activity IC50, MCF7 (breast)
# Experimental: (§1) Compounds 1-16 were screened for their in vitro cytotoxic activity utilizing a 3-(4,5-dimethyl-thiazol-2-yl)-2,5-diphenyltetrazolium bromide (MTT) assay against selected cancer human cell lines consisting of PC3 (prostate), HCT116 (colon), A375 (melanoma), H1299 (lung), MIAPaCa-2 (pancreas), HL60 (leukemia), MCF7 (breast), MDA-MB-231 (breast) (T. Mosmann, J. Immunol. Meth., 1983, 65, 55-63). The cells were cultured at 37° C. in RMPI1640 medium supplemented with 10% fetal bovine serum, 50 IU/mL penicillin, and 50 μg/mL streptomycin in a 5% CO2 incubator. All cells were sub-cultured 3 times/week by trypsinisation. Viable cells were seeded and allowed to adhere for 12 hours before a test drug was added in 96-well plates at an initial density of 1.0×10^5 cells/mL. Tumor cell lines were separately exposed to various concentrations of the tested compounds followed by incubation at a temperature of 37° C. during 96 hours inside a medium of fresh RMPI 1640. Cells were subsequently incubated at 37° C. using MTT at 0.5 mg/mL during 4 hours. After removal of supernatant, formazan crystals were dissolved in isopropanol and the optical density was measured at 570 nm. CX-4945 was used as a positive control.
# A375 (melanoma) = test: In vitro cytotoxic activity (MTT) assay, A375; format: cell-based; details: Homo sapiens, A-375; A375 cells, exposed for 96 hours, 50% inhibition of cell proliferation; read-out: Cytotoxicity activity IC50, A375 (melanoma)
# Experimental: as §1
# MIAPaCa-2 (pancreas) = test: In vitro cytotoxic activity (MTT) assay, MIAPaCa-2; format: cell-based; details: Homo sapiens, MIA PaCa-2; MIAPaCa-2 cells, exposed for 96 hours, 50% inhibition of cell proliferation; read-out: Cytotoxicity activity IC50, MIAPaCa-2 (pancreas)
# Experimental: as §1
# PC3 (prostate) = test: In vitro cytotoxic activity (MTT) assay, PC3; format: cell-based; details: Homo sapiens, PC-3; PC3 cells, exposed for 96 hours, 50% inhibition of cell proliferation; read-out: Cytotoxicity activity IC50, PC3 (prostate)
# Experimental: as §1
# HL60 (leukemia) = test: In vitro cytotoxic activity (MTT) assay, HL60; format: cell-based; details: Homo sapiens, HL-60; HL60 cells, exposed for 96 hours, 50% inhibition of cell proliferation; read-out: Cytotoxicity activity IC50, HL60 (leukemia)
# Experimental: as §1
# recombinant human CK2 = molecular target: T1, recombinant human CK2 (Homo sapiens, UniProt P68400); test: CK2 Kinase Assay (33P-ATP, substrate peptide RRRDDDSDDD); format: biochemical; details: recombinant human CK2 holoenzyme, final ATP concentration 15 μM, 10 min at 30° C.; read-out: protein kinase CK2 IC50
# T1 construct: purchased Millipore
# Experimental: CK2 Kinase Assay was conducted using the protocol as described in Pierre F. et al; J. Med. Chem. 2011, 54, 635-654. The tested compounds in aqueous solution were added at a volume of 10 μL to a reaction mixture comprising 10 μL of assay dilution buffer (ADB; 20 mM MOPS, pH 7.2, 25 mM β-glycerol phosphate, 5 mM EGTA, 1 mM sodium orthovanadate, and 1 mM dithiothreitol), 10 μL of substrate peptide (RRRDDDSDDD, dissolved in ADB at a concentration of 1 mM), 10 μL of recombinant human CK2 (RROP-holoenzyme, 25 ng dissolved in ADB; Millipore). Reactions were initiated by the addition of 10 μL of ATP solution (90% 75 mMMgCl2, 75 μM ATP (final ATP concentration: 15 μM) dissolved in ADB; 10% [γ-33P] ATP (stock 1 mCi/100 μL; 3000 Ci/mmol (Perkin-Elmer) and maintained for 10 min at 30° C. The reactions were quenched with 100 μL of 0.75% phosphoric acid and then transferred to and filtered through a phosphor cellulose filter plate (Millipore). After washing each well five times with 0.75% phosphoric acid, the plate was dried under vacuum for 5 min and, following the addition of 15 μL of scintillation fluid to each well, the residual radioactivity was measured using a Wallac […] counter. The IC50 values were derived from eight concentrations of test inhibitors.
# H1299 (lung) = test: In vitro cytotoxic activity (MTT) assay, H1299; format: cell-based; details: Homo sapiens, NCI-H1299; H1299 cells, exposed for 96 hours, 50% inhibition of cell proliferation; read-out: Cytotoxicity activity IC50, H1299 (lung)
# Experimental: as §1
# MDA-MB-231 (breast) = test: In vitro cytotoxic activity (MTT) assay, MDA-MB-231; format: cell-based; details: Homo sapiens; MDA-MB-231 cells, exposed for 96 hours, 50% inhibition of cell proliferation; read-out: Cytotoxicity activity IC50, MDA-MB-231 (breast)
# Experimental: as §1
# HCT116 (colon) = test: In vitro cytotoxic activity (MTT) assay, HCT116; format: cell-based; details: Homo sapiens, HCT-116; HCT116 cells, exposed for 96 hours, 50% inhibition of cell proliferation; read-out: Cytotoxicity activity IC50, HCT116 (colon)
# Experimental: as §1
# T1 sequence (P68400 whole entry): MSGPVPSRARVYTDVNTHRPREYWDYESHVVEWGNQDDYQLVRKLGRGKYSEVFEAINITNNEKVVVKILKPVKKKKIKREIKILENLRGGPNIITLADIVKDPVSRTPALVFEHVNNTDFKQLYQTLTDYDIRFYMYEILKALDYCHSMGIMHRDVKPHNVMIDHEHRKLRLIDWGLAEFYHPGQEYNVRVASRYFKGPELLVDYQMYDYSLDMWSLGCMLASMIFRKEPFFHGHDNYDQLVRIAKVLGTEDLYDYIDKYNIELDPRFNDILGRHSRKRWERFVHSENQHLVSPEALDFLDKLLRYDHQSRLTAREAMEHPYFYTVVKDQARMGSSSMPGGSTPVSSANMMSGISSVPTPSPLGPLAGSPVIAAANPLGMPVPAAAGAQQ
# T1 sequence (P67870 whole entry partner): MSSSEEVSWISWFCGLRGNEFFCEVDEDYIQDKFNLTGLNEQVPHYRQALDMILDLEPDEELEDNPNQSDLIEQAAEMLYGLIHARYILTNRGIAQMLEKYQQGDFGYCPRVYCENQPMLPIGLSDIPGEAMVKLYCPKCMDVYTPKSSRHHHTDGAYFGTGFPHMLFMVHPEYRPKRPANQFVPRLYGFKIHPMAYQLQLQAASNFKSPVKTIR
smiles,measurement,setting,value
"O=C(O)c1ncn2c1nc(Nc1cccc(Cl)c1)c1ccncc12 [Compound 1, 5-((3-chlorophenyl)amino)imidazo[1,5-a]pyrido[4,3-e]pyrimidine-3-carboxylic acid]",IC50,MCF7 (breast),5.4 µM
same,IC50,A375 (melanoma),3.8 µM
same,IC50,MIAPaCa-2 (pancreas),1.3 µM
same,IC50,PC3 (prostate),1.7 µM
same,IC50,HL60 (leukemia),3.6 µM
same,IC50,recombinant human CK2,0.074 µM
same,IC50,H1299 (lung),1.9 µM
same,IC50,MDA-MB-231 (breast),4.5 µM
same,IC50,HCT116 (colon),2 µM
